Measured values: publication PMC8124365 (International Journal of Molecular Sciences, 2021)
Where two headings read alike, the source gives them in different places.

How the values were obtained:
[1] = test system: subcutaneous tumour models; conditions: 0.02–0.1 MBq; ref [59],[61]; cited from earlier work
C4-2 = conditions: cited from earlier work; for TI: NOD-SCID gamma (C4-2), median survival, ref Stuparu et al., 2020 [59]; for Toxicity in treated mice: radiosensitive model, ref [59]
RM1-PGLS [2] = conditions: cited from earlier work
LNCaP [3] = test system: LNCaP; parameters: method as in Kuo et al., 2018 [30]; conditions: 18.5 MBq; NOD rag gamma (LNCaP); median survival; ref Kuo et al., 2018 [30]; cited from earlier work
PC-3 PIP [4] = test system: PC-3 PIP; parameters: method as in Umbricht et al., 2018 [60]; conditions: Athymic nude BALB/c (PC-3 PIP), median survival, ref Umbricht et al., 2018 [60], cited from earlier work
LNCaP [5] = conditions: cited from earlier work; for Kidney Uptake / Tumour Uptake: NOD-SCID gamma (LNCaP), ref Kuo et al., 2018 [30]
RM1-PGLS [6] = test system: RM1-PGLS; parameters: method as in Fendler et al., 2017 [36]; conditions: C57BL/6 (RM1-PGLS), median survival, ref Fendler et al., 2017 [36], cited from earlier work
PC-3 PIP [7] = test system: PC-3 PIP; parameters: method as in Banerjee et al., 2019 [3]; conditions: 111 MBq; NOD-SCID gamma (PC-3 PIP); median survival; ref Banerjee et al., 2019 [3]; cited from earlier work
LNCaP [8] = test system: LNCaP; parameters: method as in Benesova et al., 2015 [31]; conditions: BALB/c nu/nu (LNCaP), ref Benesova et al., 2015 [31], cited from earlier work
PC-3 PIP [9] = test system: PC-3 PIP; parameters: method as in Benesova et al., 2018 [33]; conditions: Athymic nude BALB/c (PC-3 PIP), ref Benesova et al., 2018 [33], cited from earlier work
LNCaP [10] = conditions: cited from earlier work; for Kidney Uptake / Tumour Uptake: BALB/c nu/nu (LNCaP), ref Kelly et al., 2018 [32]
tumour = test system: tumour; parameters: method as in Fendler et al. [36]; conditions: after 4 days; ref Fendler et al. [36]; cited from earlier work
C4-2 xenografts = assay: Biodistribution of radioligand in mice with C4-2 xenografts; format: in vivo, Hsd:Athymic Nude-Foxn1^nu mice; conditions: free ^212Pb control
Source text: For the biodistribution and therapy studies, 105 male Hsd:Athymic Nude-Foxn1^nu mice bred at the Department of Comparative Medicine at the Norwegian Radium Hospital (Oslo University Hospital, Oslo, Norway) were used. For the toxicity study, 13 male BALB/cJRj mice from Janvier Labs (Le Genest-Saint-Isle, France) were used. The studies were approved by the Institutional Committee on Research Animal Care (Department of Comparative Medicine, Oslo University Hospital) and the Norwegian Food Safety Authority (Brumunddal, Norway, approval: FOTS ID 22197, 20/49651). All procedures and experiments involving animals in this study were performed in accordance with the Interdisciplinary Principles and Guidelines for the Use of Animals in Research, Marketing and Education (New York Academy of Sciences, New York, USA) and the EU Directive 2010/63/EU for animal experiments as well as the ARRIVE guidelines. The animals were maintained under specific pathogen-free conditions with ad libitum access to food and water. Cages (1–5 mice per cage) were housed in a scantainer, which was maintained at constant temperature (24 °C) and humidity (60%). The mice were around 4–6 weeks in age and weighed 25–35 g at the start of the study.
Mice were inoculated subcutaneously in both flanks with 10 × 10^6 C4-2 cells in supplement-free RPMI1640 medium mixed 1:1 with Matrigel Matrix (Corning, NY, USA) in a total volume of 200 µL. In one of the biodistribution experiments, mice were inoculated with 5 × 10^6 PC-3 cells (200 µL, 1:1 medium:Matrigel Matrix) as a negative control. The tumours were allowed to grow to reach a volume of 300–1500 mm^3 for the biodistribution studies and a volume of 30–300 mm^3 for the therapy studies, and tumour-bearing mice were randomised based on tumour size before radioligand injection. Mice were monitored 2–3 times per week for changes in body weight and tumour size and were euthanised by cervical dislocation if any of the following humane end points were reached: >20% weight loss from initial body weight, rapid weight loss (>10% within 2 days), tumours exceed 20 mm in any direction, ulcerate or interfere with normal behaviour, or any signs of severe sickness or discomfort.
At various time points after injection (from 15 min up to 48 h), organs/tissues were harvested, and radioligand uptake was calculated as a percentage of injected dose per gram tissue (%ID/g). Effective half-lives in selected organs were obtained by fitting monoexponential functions to the biodistribution data (Bq/g vs. time), normalised to 1 MBq/kg, (1) y(t)=a×e^−ln(2)×t/Teffective
The biological half-lives were then calculated by the following formula:(2) 1/Teffective=1/Tbiological+1/Tphysical

For `O=C([O-])CC[C@H](NC(=O)N[C@@H](CCCCNC(=O)[C@H](Cc1ccc2ccccc2c1)NC(=O)[C@H]1CC[C@H](CNC(=O)CN2CCN(CC(=O)[O-])CCN(CC(=O)[O-])CCN(CC(=O)[O-])CC2)CC1)C(=O)[O-])C(=O)[O-].[225Ac].[H+].[H+].[H+]` [^225Ac-PSMA-617], the “Therapeutic Index Range” value [1] is given as 1.1–6.7, the TI (C4-2; 0.02 MBq (0.13 MBq/nmol)) is given as 3.6 and the “Toxicity in treated mice” value (C4-2; 0.02 and 0.04 MBq) is given as “transient weight loss”. For the same molecule, the TI (C4-2; 0.04 MBq (0.13 MBq/nmol)) was 6.7, the TI (C4-2; 0.10 MBq (0.13 MBq/nmol)) was 4.2 and the “Toxicity in treated mice” value (C4-2; 0.10 MBq) was “severe weight loss”. For the same molecule, the TI (RM1-PGLS [2]; 0.03 MBq (0.13 MBq/nmol), Athymic nude mice (RM1-PGLS), median survival, ref Czernin et al., 2020 [61]) was 1.1 and the “Toxicity in treated mice” value (RM1-PGLS [2]; 0.03 MBq, more radioresistant model, ref [61]) was “no signs of toxicity”.
In the case of `O=C([O-])CN1CCN(CC(=O)[O-])CCN(CC(=O)NCC2CCC(C(=O)N[C@@H](Cc3ccc4ccccc4c3)C(=O)NCCCC[C@H](NC(=O)N[C@@H](CCC(=O)O)C(=O)O)C(=O)O)CC2)CCN(CC(=O)[O-])CC1.[177Lu+3]` (stereo partly drawn) [^177Lu-PSMA-617], the TI (LNCaP [3]) is given as 4.1, the TI (PC-3 PIP [4]; 2 MBq (2 MBq/nmol)) is given as 1.1 and the TI (PC-3 PIP [4]; 5 MBq (5 MBq/nmol)) is given as 1.8. The “Kidney Uptake” value (LNCaP [5]; 1h) was 97.2 ± 19.4 %ID/G, the “Tumour Uptake” value (LNCaP [5]; 1h) was 15.1 ± 5.6 %ID/G and the “Kidney Uptake” value (LNCaP [5]; 4h) was 26.6 ± 19.1 %ID/G. For the same molecule, the “Tumour Uptake” value (LNCaP [5]; 4h) was 14.5 ± 1.8 %ID/G, the “Kidney Uptake” value (LNCaP [5]; 24h) was 0.6 ± 0.2 %ID/G and the “Tumour Uptake” value (LNCaP [5]; 24h) was 10.9 ± 3.3 %ID/G. The Tumour level (LNCaP [5]; after 5 days, ref Kuo et al. [30]) was 7 %ID/g, the TI (RM1-PGLS [6]; 30 MBq (62 MBq/nmol)) was 1.4 and the TI (RM1-PGLS [6]; 60 MBq (62 MBq/nmol)) was 1.9. For the same molecule, the TI (RM1-PGLS [6]; 120 MBq (62 MBq/nmol)) was 1.9, the TI (PC-3 PIP [7]) was 3.9 and the “Kidney Uptake” value (LNCaP [8]; 1h) was 137.2 ± 77.8 %ID/G. For the same molecule, the “Tumour Uptake” value (LNCaP [8]; 1h) was 11.2 ± 4.2 %ID/G, the “Kidney Uptake” value (LNCaP [8]; 24h) was 2.1 ± 1.4 %ID/G and the “Tumour Uptake” value (LNCaP [8]; 24h) was 10.6 ± 4.5 %ID/G. For the same molecule, the “Kidney Uptake” value (PC-3 PIP [9]; 1h) was 9.8 ± 1.4 %ID/G, the “Tumour Uptake” value (PC-3 PIP [9]; 1h) was 44.2 ± 12.0 %ID/G and the “Kidney Uptake” value (PC-3 PIP [9]; 4h) was 3.4 ± 3.2 %ID/G. The “Tumour Uptake” value (PC-3 PIP [9]; 4h) was 56.0 ± 8.0 %ID/G, the “Kidney Uptake” value (PC-3 PIP [9]; 24h) was 0.8 ± 0.9 %ID/G and the “Tumour Uptake” value (PC-3 PIP [9]; 24h) was 37.3 ± 5.8 %ID/G. For the same molecule, the “Kidney Uptake” value (LNCaP [10]; 4h) was 14.1 ± 3.1 %ID/G, the “Tumour Uptake” value (LNCaP [10]; 4h) was 14.4 ± 1.1 %ID/G and the “Kidney Uptake” value (LNCaP [10]; 24h) was 0.7 ± 0.1 %ID/G. The “Tumour Uptake” value (LNCaP [10]; 24h) was 4.6 ± 0.6 %ID/G, the Tumour level (LNCaP [10]; after 4 days, ref Kelly et al. [32]) was 3.5 %ID/g and the Tumour level (tumour) was 0.7 %ID/g.
With `[212Pb+2]` [^212Pb^2+] the Uptake in kidneys (C4-2 xenografts; 1–8 h post injection) was 34.2–49.0 %ID/g, the Uptake in liver (C4-2 xenografts; 1–8 h post injection) was 8.3–9.1 %ID/g and the Uptake in bones (C4-2 xenografts; at 1–4 h) was 7.3–10.4 %ID/g. The Uptake in bones (C4-2 xenografts; at 8 h) was 1.0–2.6 %ID/g.
